Key:
Format in all cases: cell-based
[1] = system: human PC-3 cells; assay: Sulforhodamine B (SRB) assay, cytotoxicity against PC-3 cells; conditions: SRB assay, PC-3 cells
Method: Add 5% Fetal Bovine Serum (FBS) to 96-well plate and fix the cells with 10% TCA after 24 hours of incubation and add the compound (T0). Add DMSO and culture for another 48 hours and the cells are fixed in 0.4% (W/V), 10% TCA and SRB, and […]. Excess SRB is washed off by 1% acetic acid and cells stained with SRB are dissolved in 10 mmol/L Trizma base. The absorbance is measured at 515 nm. The treatment time is 0 (T0), control growth (C) and the increase of the compound (Tx) in the cells are shown below and are used to calculate the increase of the concentration of the compound in percentage. Growth inhibition (GI %) is calculated using the following formula 100−[(TX−T0)/(C−T0)]×100. The 50% growth inhibition concentration (IC50) is used to confirm the concentration of compound and thus results in 50% reduction of the treated cells which control the amount of total protein.
This part of experimental results are SRB assays measuring cytotoxicity of the 26 synthesized compounds against human PC-3 cells and are summarized in Table 1 and 2.

[2] = system: MOLT-4; assay: cells; conditions: MOLT-4 (Leukemia), 10 μM, 48 hours
[3] = system: HOP-62; assay: cells; conditions: HOP-62 (Non-Small Cell Lung Cancer), 10 μM, 48 hours
[4] = system: NCI-H460; assay: cells; conditions: NCI-H460 (Non-Small Cell Lung Cancer), 10 μM, 48 hours
[5] = system: HCT-116; assay: cells; conditions: HCT-116 (Colon Cancer), 10 μM, 48 hours
[6] = system: HCT-15; assay: cells; conditions: HCT-15 (Colon Cancer), 10 μM, 48 hours
[7] = system: HT29; assay: cells; conditions: HT29 (Colon Cancer), 10 μM, 48 hours
[8] = system: KM12; assay: cells; conditions: KM12 (Colon Cancer), 10 μM, 48 hours
[9] = system: SNB-75; assay: cells; conditions: SNB-75 (CNS Cancer), 10 μM, 48 hours
[10] = system: MALME-3M; assay: cells; conditions: MALME-3M (Melanoma), 10 μM, 48 hours
[11] = system: SK-MEL-28; assay: cells; conditions: SK-MEL-28 (Melanoma), 10 μM, 48 hours
[12] = system: OVCAR-3; assay: cells; conditions: OVCAR-3 (Ovarian Cancer), 10 μM, 48 hours
[13] = system: OVCAR-4; assay: cells; conditions: OVCAR-4 (Ovarian Cancer), 10 μM, 48 hours
[14] = system: OVCAR-5; assay: cells; conditions: OVCAR-5 (Ovarian Cancer), 10 μM, 48 hours
[15] = system: OVCAR-8; assay: cells; conditions: OVCAR-8 (Ovarian Cancer), 10 μM, 48 hours
[16] = system: NCI/ADR-RES; assay: cells; conditions: NCI/ADR-RES (Ovarian Cancer), 10 μM, 48 hours
[17] = system: SK-OV-3; assay: cells; conditions: SK-OV-3 (Ovarian Cancer), 10 μM, 48 hours
[18] = system: RXF 393; assay: cells; conditions: RXF 393 (Renal Cancer), 10 μM, 48 hours
[19] = system: SN12C; assay: cells; conditions: SN12C (Renal Cancer), 10 μM, 48 hours
[20] = system: UO-31; assay: cells; conditions: UO-31 (Renal Cancer), 10 μM, 48 hours
[21] = system: MCF7; assay: cells; conditions: MCF7 (Breast Cancer), 10 μM, 48 hours
[22] = system: MDA-MB-231/ATCC; assay: cells; conditions: MDA-MB-231/ATCC (Breast Cancer), 10 μM, 48 hours
[23] = system: HS 578T; assay: cells; conditions: HS 578T (Breast Cancer), 10 μM, 48 hours
[24] = system: T-47D; assay: cells; conditions: T-47D (Breast Cancer), 10 μM, 48 hours
[25] = system: MDA-MB-468; assay: cells; conditions: MDA-MB-468 (Breast Cancer), 10 μM, 48 hours

| SMILES | Toxicity (%) [1] | GI % (10 μM) [1] | growth percentage [2] | growth percentage [3] | growth percentage [4] | growth percentage [5] | growth percentage [6] | growth percentage [7] | growth percentage [8] | growth percentage [9] | growth percentage [10] | growth percentage [11] | growth percentage [12] | growth percentage [13] | growth percentage [14] | growth percentage [15] | growth percentage [16] | growth percentage [17] | growth percentage [18] | growth percentage [19] | also measured |
| --- | --- | --- | --- | --- | --- | --- | --- | --- | --- | --- | --- | --- | --- | --- | --- | --- | --- | --- | --- | --- | --- |
| O=C1c2cc(Cl)ccc2-c2c(N3CCSCC3)nc3ccccc3c21 [SJ-9, 9-Chloro-6-thiomorpholino-11H-indeno[1,2-c]quinolin-11-one] | 33.3% | 100% | 93.29% | 78.17% | 93.32% | 89.08% | 97.88% | 95.52% | 97.97% | 72.13% | 101.05% | 110.84% | 96.58% | 98.19% | 94.37% | 96.11% | 102.85% | 84.60% | 106.09% | 93.10% | growth percentage [20]: 65.33%; growth percentage [21]: 49.61%; growth percentage [22]: 93.08%; growth percentage [23]: 87.68%; growth percentage [24]: 83.86%; growth percentage [25]: 97.71% |
| O=C1c2cc(Cl)ccc2-c2c(N3CCN(C4CCCC4)CC3)nc3ccccc3c21 [SJ-14, 9-Chloro-6-(4-cyclopentylpiperazin-1-yl)-11H-indeno[1,2-c]quinolin-11-one] | 0% | 96.26% | 98.39% | 108.83% | 101.46% | 91.34% | 89.64% | 93.22% | 99.33% | 86.36% | 92.48% | 107.58% | 99.54% | 94.20% | 106.41% | 96.55% | 100.39% | 96.85% | 95.60% | 99.08% | growth percentage [20]: 72.57%; growth percentage [21]: 75.18%; growth percentage [22]: 82.96%; growth percentage [23]: 99.40%; growth percentage [24]: 92.20%; growth percentage [25]: 103.99% |
| COc1cccc(N2CCN(c3nc4ccccc4c4c3-c3ccc(Cl)cc3C4=O)CC2)c1 [SJ-20, 9-Chloro-6-(4-(3-methoxyphenyl)piperazin-1-yl)-11H-indeno[1,2-c]quinolin-11-one] | 0% | 98.05% | 95.46% | 90.22% | 101.76% | 93.02% | 100.39% | 95.93% | 105.95% | 37.76% | 92.79% | 103.93% | 104.27% | 87.08% | 98.22% | 83.98% | 92.82% | 86.02% | 78.38% | 88.17% | growth percentage [20]: 86.64%; growth percentage [21]: 77.46%; growth percentage [22]: 79.81%; growth percentage [23]: 71.75%; growth percentage [24]: 86.68%; growth percentage [25]: 101.04% |
| O=C1c2cc(Cl)ccc2-c2c(N3CCN(C(=O)N4CCCCC4)CC3)nc3ccccc3c21 [SJ-23] | 43% | 100% | 104.77% | 96.39% | 98.85% | 101.67% | 99.35% | 108.65% | 101.58% | 80.84% | 102.62% | 107.03% | 103.33% | 98.31% | 102.33% | 104.73% | 107.13% | 95.59% | 107.22% | 101.12% | growth percentage [20]: 82.74%; growth percentage [21]: 97.24%; growth percentage [22]: 93.54%; growth percentage [23]: 102.06%; growth percentage [24]: 95.99%; growth percentage [25]: 106.42% |
